The subject of this assay is AP-1. In words: Inhibition of AP-1 activation (AP-1 DNA binding activity by EMSA) in LPS-stimulated RAW 264-7 macrophages. The class given is cell-based, murine. Particulars: LPS-stimulated RAW 264-7 cells, nuclear extract; for AP-1 DNA binding at the highest concentration: 1000 μM (tested 0.1-1000 μM). The procedure:
The inhibition of the activation of AP-1 was shown with a pharmacological model. For this purpose, a cell culture of the murine macrophage cell line RAW 264-7 was taken and stimulated with 10 mg/ml LPS for 1 hour in the absence or in the presence of flurbiprofen. R-flurbiprofen (0.1, 1, 10, 100 and 1000 μM) and S-flurbiprofen (0.1, 1, 10, 100 and 1000 μM) were dissolved in phosphate buffer, added to the cell cultures 30 minutes before the LPS treatment. After conclusion of the treatment, the cells were harvested and worked up in a cytosol fraction and a cell nucleus extract. The cell nucleus extract ([…]) was incubated for 30 minutes with the AP-1-specific oligonucleotide 5′-CGCTT GATGACTCAGCCGGAA-3′ which is terminally labelled with ^32P ATP. From the incubation medium was separated the nucleus protein DNA complexes from the non-bound DNA by electro-phoresis (electrophoretic mobile shift assay EMSA). After drying of the gels, these were visualised by means of autoradiography.
For orientation: In EMSA bound probe runs differently from free probe, usually more slowly.

As for `C[C@@H](C(=O)O)c1ccc(-c2ccccc2)c(F)c1` [R-flurbiprofen], the “AP-1 DNA binding at the highest concentration” value is “completely suppressed”. Further, the “inhibition of AP-1 DNA binding” value (10-1000 μM, added 30 minutes before LPS) is “inhibits the AP-1 DNA binding dosage-dependent”.
As to `C[C@H](C(=O)O)c1ccc(-c2ccccc2)c(F)c1` [S-flurbiprofen, reference compound], the “AP-1 DNA binding at the highest concentration” value is on record as “a reduction was found only in the case of the highest concentration”.

(Values after patent US8092829B2, “Use of R-arylpropionic acids for treating illnesses with a rheumatic nature” (Paz Arzneimittelentwicklungsgesellschaft mbH, priority 2000, dated 2012).)
